In publication PMC2606048 (Bioorganic & medicinal chemistry letters, 2008):
Like-named read-outs stand apart in the source and are kept apart here.

How the values were obtained:
[1] = test system: L1210, FM3A, Molt/4 and CEM cells; assay: Antiproliferative activity summarised over the panel of four cancer cell lines; assay type: cell-based, murine and human; conditions: for IC50: read-out: IC50 (span over the four cell lines); for Antiproliferative activity (in words): four cell lines
[2] = test system: human T-lymphocyte Molt4/C8 cells; assay: Inhibition of proliferation of human T-lymphocyte Molt4/C8 cells; assay type: cell-based
[3] = test system: murine leukemia (L1210) cells; assay: Inhibition of proliferation of murine leukemia; assay type: cell-based
[4] = test system: human T-lymphocyte CEM cells; assay: Inhibition of proliferation of human T-lymphocyte CEM cells; assay type: cell-based
[5] = test system: murine mammary carcinoma (FM3A) cells; assay: Inhibition of proliferation of murine mammary carcinoma; assay type: cell-based
[6] = test system: K562 (human chronic myelogenous leukemia) cells; assay: K562 cell growth inhibition after 24 h; assay type: cell-based; conditions: read-out: IC50 determined for 24 h of growth
[7] = test system: K562 (human chronic myelogenous leukemia) cells; assay: Flow cytometric analysis of cell cycle distribution in K562 cells; assay type: cell-based; conditions: 24 h, compound at its 24 h IC50, propidium iodide
tubulin = assay: Inhibition of tubulin polymerization; conditions: read-out: Tubulin assembly IC50 ± SD; Tubulin was at 10 μM

Compound `COc1cc(C(=O)c2c(N)sc3c2CCN(Cc2ccccc2)C3)cc(OC)c1OC` [Compound 4d] has an IC50 [1] of over 10000 nM.

With `CCCOC(=O)N1CCc2c(sc(N)c2C(=O)c2cc(OC)c(OC)c(OC)c2)C1` [Compound 4h] the “fold reduction in activity on lengthening the alkyl chain (vs 4g)” value (“fold reduction in activity” below) ([2]; Molt-4 cells) was 1.5 fold, the “fold reduction in activity” value ([3]; L1210 cells) was 10 fold and the “fold reduction in activity” value [4] was 3 fold. For the same compound, the “fold reduction in activity” value [5] was 25 fold.

For `COc1cc(C(=O)c2c(N)sc3c2CCN(C)C3)cc(OC)c1OC` [Compound 4a], the IC50 [1] was over 10000 nM.

For `CCOC(=O)N1CCc2c(sc(N)c2C(=O)c2cc(OC)c(OC)c(OC)c2)C1` [Compound 4g], the IC50 ([6]; Homo sapiens, K562, 24 h) was 80 nM, the IC50 [1] was 57 to 440 nM and the “Effect on cell cycle distribution” value [7] was “marked increase in the percentage of cells blocked in the G2-M phase”.

`COc1cc(C(=O)c2c(N)sc3c2CCN(C(=S)NC2CCCCC2)C3)cc(OC)c1OC` [Compound 4w] showed an IC50 [1] of 730 to 1100 nM.

`COc1ccc(/C=C\c2cc(OC)c(OC)c(OC)c2)cc1O` [CA-4 (1), combretastatin A-4, reference compound] gave an IC50 ([3]; Mus musculus, L1210, read-out: IC50 L1210) of 2.8 ± 1.1 nM.

In the case of `COc1cc(C(=O)c2c(N)sc3cnccc23)cc(OC)c1OC` [Compound 5, 2-amino-3-(3′,4′,5′-trim-ethoxybenzoyl)thieno[2,3-c]pyridine], the IC50 ([6]; Homo sapiens, K562, 24 h) is reported as 500 nM, the IC50 (tubulin) is reported as 5400 ± 400 nM and the “fold less potent than 2a” value [4] is reported as 13 fold. For the same compound, the “Effect on cell cycle distribution” value [7] was “marked increase in the percentage of cells blocked in the G2-M phase”.

Compound `CNC(=S)N1CCc2c(sc(N)c2C(=O)c2cc(OC)c(OC)c(OC)c2)C1` [Compound 4s] has an IC50 [1] of 1600 to 4900 nM.

In the case of “2-amino-3-(3,4,5-trimethoxybenzoyl)-6-methoxycarbonyl-4,5,6,7-tetrahydrothieno[b]pyridine [Compound 4f]”, the IC50 ([6]; K562 cells, 24 h) is reported as 70 nM, the “fold more potent than 4g” value ([2]; Molt4 cells) is reported as 6 fold and the “fold more potent than 4g” value ([3]; L1210 cells) is reported as 4 fold. For the same compound, the IC50 (tubulin) was 600 ± 20 nM, the “fold more potent than 4g” value [4] was 5 fold and the “Effect on cell cycle distribution” value [7] was “marked increase in the percentage of cells blocked in the G2-M phase”.

`COc1cc(C(=O)c2c(N)sc3c2CCN(C(=S)NC(C)C)C3)cc(OC)c1OC` [Compound 4u] was tested, and the “Antiproliferative activity (in words)” value [1] was “inactive”.

`CCCN1CCc2c(sc(N)c2C(=O)c2cc(OC)c(OC)c(OC)c2)C1` [Compound 4c] gave an IC50 [1] of over 10000 nM.

For `COc1cc(C(=O)c2c(N)sc3c2CCN(C(=O)NC(C)C)C3)cc(OC)c1OC` [Compound 4m], the “Antiproliferative activity (in words)” value [1] was “inactive”.

In the case of `COc1cc(C(=O)c2c(N)sc3c2CCN(C(C)=O)C3)cc(OC)c1OC` [Compound 4e], the IC50 [1] is reported as 1100 to 3900 nM.

For `CCN1CCc2c(sc(N)c2C(=O)c2cc(OC)c(OC)c(OC)c2)C1` [Compound 4b], the IC50 [1] was 1700 to 2100 nM.

With `COc1cc(C(=O)c2c(N)sc3ccccc23)cc(OC)c1OC` [Compound 2a, reference compound] the IC50 (tubulin) was 1900 ± 100 nM.

`CCNC(=S)N1CCc2c(sc(N)c2C(=O)c2cc(OC)c(OC)c(OC)c2)C1` [Compound 4t] showed an IC50 [1] of 4800 to 6900 nM.
